Molecules are shown by their SMILES.

The experiment deals with Substance-P receptor (Homo sapiens, UniProt P25103). As to the kind of experiment: Binding affinity for human NK1 receptor expressed in CHO cells. The experiment is classed as cell-based.
Substance-P receptor, sequence (P25103 whole entry): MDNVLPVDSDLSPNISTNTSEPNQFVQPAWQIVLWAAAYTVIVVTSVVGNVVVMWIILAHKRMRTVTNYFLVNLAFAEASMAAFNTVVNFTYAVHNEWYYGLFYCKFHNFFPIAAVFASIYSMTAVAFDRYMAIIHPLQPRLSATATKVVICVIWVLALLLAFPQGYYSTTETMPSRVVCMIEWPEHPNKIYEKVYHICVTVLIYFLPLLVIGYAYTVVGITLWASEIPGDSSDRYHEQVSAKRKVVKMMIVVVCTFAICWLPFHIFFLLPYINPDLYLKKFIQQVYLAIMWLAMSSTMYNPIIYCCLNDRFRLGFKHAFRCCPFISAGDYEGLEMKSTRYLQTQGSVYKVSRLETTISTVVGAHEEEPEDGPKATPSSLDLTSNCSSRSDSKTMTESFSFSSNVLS

On to `FC(F)(F)c1cc(COC[C@]2(c3ccccc3)CCCCN2)cc(C(F)(F)F)c1`, for which the 50% inhibitory concentration (IC50) came out at 1 nM. Under `FC(F)(F)c1cc(COC[C@]2(c3ccccc3)CCCN2)cc(C(F)(F)F)c1` stands 20 nM.

(Values after ChEMBL document CHEMBL1128019, “Gem-disubstituted amino-ether based substance p antagonists” (Bioorg Med Chem Lett, 1994).)
